Measurements from patent US20190070296A1, “SONODYNAMIC THERAPY” (LI-COR, INC., priority 2017, published 2019).

Columns and labels:
[1] = test system: A431 cells; assay: VB-48 Assay: vitality, viability and necrosis after probe labeling and irradiation; type: cell-based; details: irradiated 32 J/cm^2; RGD-700DX 0.5 μM, EGF-700DX 0.5 μM, 700DX NHSe 5 μM, Pan-700DX ~0.1 μM; 24 hours post treatment
Procedure: Briefly, A431 cells were labeled with respective probes for specific treatments (listed below); cells were rinsed and evaluated for labeling. The test include the following treatments: […], treatments 3-4 of EGF-IRDye® 700DX at 0.5 μM and radiation, treatments 5-6 of IRDye® 700DX NHSe at 5 μM and radiation, treatments 7-8 of panitumumab-IRDye® 700DX at about 0.1 μM and radiation, treatment 9 of a negative control with no probe and no irradiation, and treatment 10 of RGD-IRDye® 700DX and no irradiation. The probes were incubated for about 10 minutes and with a longer period of about 20 minutes for the RGD probe.

[2] = Sonoactivation of IRDye 700DX solution; reactive oxygen species detected with dihydrorhodamine 123 (DHRd123) indicator
From the text: The results illustrate that ultrasonic waves enhance the emission of a reactive oxygen species indicator, which indicates the occurrence of one of the sonodynamic effects generated by applying ultrasonic energy to IRDye® 700DX under the experimental conditions. In this example, the concentration of IRDye® 700DX was 1 μm.
The experiment included dihydroxy rhodamine 123 to detect the presence of reactive oxygen species. Reactive oxygen species were detected.
The results illustrate a continuous treatment of a 1 MHz ultrasonic wave. […] The experiment included dihydroxy rhodamine 123 to detect the presence of reactive oxygen species. Reactive oxygen species were detected. […]

[3] = Sonoactivation of IRDye 700DX solution; singlet oxygen detected with Sensor Green indicator; details: ultrasonic wave at 1MHz and 2.0W/cm^2
From the text: As shown therein, there is generation of singlet oxygen during the sonodynamic process. By applying the ultrasonic wave at 1MHz and 2.0W/cm^2 to the agent IRDye® 700DX, the enhancement of the emission of the singlet oxygen indicator, Sensor Green (SG), indicates the occurrence of a sonodynamic effects. Singlet oxygen was detected.
Both sonosensitization, also known as sonodynamic activation or sonoactivation, and photosensitization, also known as photodynamic activation or photoactivation, trigger reactive oxidation species (ROS) or single oxygen (^1O2) that results in cell death via either apoptosis or necrosis, and thus sonodynamic therapy (SDT) or photodynamic therapy (PDT), respectively.

[4] = Emission profile of IRDye 700DX (700 nm range) after ultrasound: stability of the dye; type: physicochemical; details: 1MHz ultrasonic wave at 3 W/cm^2, 15 minutes
[5] = continuous treatment of a 1 MHz ultrasonic wave

Pan-700DX: panitumumab antibody labeled with IRDye 700DX
% Healthy [1]: 15.0%
% Necrotic [1]: 70%
Cells/mL [1]: 1.2 × 10^5 Cells/mL
Est % Viability [1]: 30-40%
Low % Vitality [1]: 15%

EGF-700DX
Cells/mL [1]: 3.4 × 10^5 Cells/mL
Low % Vitality [1]: 19%

COC(=O)c1ccccc1C1c2ccc(N)cc2Oc2cc(N)ccc21 [Sensitizer DHRd123 Solution, dihydrorhodamine 123, reference compound]
Primary Sonodynamic Effect Detected ([2]; DHRd123 solution 2.5 uM alone, no IRDye 700DX, no sonodynamic activation): None
Primary Sonodynamic Effect Detected ([2]; DHRd123 solution alone, no IRDye 700DX, 3.3 MHz, 3 W/cm^2, 15 min, duty cycle 20%, 540 J/cm^2): ROS

C[Si](C)(CCC[N+](CCCS(=O)(=O)[O-])(CCCS(=O)(=O)[O-])CCCS(=O)(=O)[O-])O[Si]1(O[Si](C)(C)CCC[N+](CCCS(=O)(=O)[O-])(CCCS(=O)(=O)[O-])CCCS(=O)(=O)[O-])n2c3c4ccccc4c2N=C2N=C(N=c4c5ccccc5c(n41)=NC1=NC(=N3)c3ccccc31)c1cccc(OCCCOC(=O)NCCCCCC(=O)ON3C(=O)CCC3=O)c12.[Na+].[Na+].[Na+].[Na+] (centres unmarked) [IRDye® 700DX]
generation of singlet oxygen (Sensor Green), FIG. 5 [3]: detected
chemical structure of the dye after sonodynamic activation (emission profile at 700 nm range) [4]: did not decompose
Primary Sonodynamic Effect Detected ([2]; 700DX 1 uM with DHRd123, no sonodynamic activation (placebo), 7 min): None
Primary Sonodynamic Effect Detected ([2]; 700DX 1 uM with DHRd123, no sonodynamic activation (placebo), 15 min): Minimal
Primary Sonodynamic Effect Detected ([2]; 700DX with DHRd123, 1 MHz, 2.2 W/cm^2, 7 + 7 min, duty cycle 20%, 370 J/cm^2): ROS+
Primary Sonodynamic Effect Detected ([2]; 700DX with DHRd123, 1 MHz, 2.2 W/cm^2, 7 min, duty cycle 20%, 185 J/cm^2): ROS
Primary Sonodynamic Effect Detected ([2]; 700DX with DHRd123, 1 MHz, 2.2 W/cm^2, 15 min, duty cycle 20%, 396 J/cm^2): ROS++
Primary Sonodynamic Effect Detected ([2]; 700DX with DHRd123, 3.3 MHz, 3 W/cm^2, 7 min, duty cycle 20%, 252 J/cm^2): ROS
Primary Sonodynamic Effect Detected ([2]; 700DX with DHRd123, 3.3 MHz, 3 W/cm^2, 15 min, duty cycle 20%, 540 J/cm^2): ROS++
emission of the reactive oxygen species indicator (FIG. 3) ([2]; IRDye 700DX 1 μm, 1MHz ultrasonic wave at 3 W/cm^2, 15 minutes): large increase in the emission of the indicator
emission peak of the reactive oxygen species indicator (FIG. 3) ([2]; IRDye 700DX 1 μm, duration 7 minutes): not as enhanced as with 15 minutes duration
presence of reactive oxygen species (dihydroxy rhodamine 123), FIG. 3 ([2]; IRDye 700DX 1 μm, ultrasonic wave 7 or 15 minutes): detected
effect of increasing the pulse duration on reactive oxygen species (FIG. 4) [2, 5]: increases the generation of reactive oxygen species
presence of reactive oxygen species (dihydroxy rhodamine 123), FIG. 4 [2, 5]: detected
